Test results published in PubChem BioAssay AID248 (DTP/NCI, 2004).
Inconclusive results and toxic doses are left out. Cut-off read from the data, not from the text of the source: active = T/C of 150% or more; inactive = T/C below 125%.

System: L1210 leukemia ip in BDF1 mice, survival T/C
Assay: NCI In Vivo Anticancer Drug Screen. Data for tumor model L1210 Leukemia (intraperitoneal) in B6D2F1 (BDF1) mice
Conditions: endpoint: mean survival time, higher = longer survival
Procedure, shortened: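 Tumor was transplanted into mice, which were then dosed with test compound or vehicle alone. Survival was recorded for each group, and the treated figure was expressed relative to the control figure.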

[1] = dose: 100.0 mg/kg/injection, schedule: Q01DX001 (ip), vehicle: saline
[2] = dose: 200.0 mg/kg/injection, schedule: Q01DX001 (ip), vehicle: saline
[3] = dose: 400.0 mg/kg/injection, schedule: Q01DX001 (ip), vehicle: saline
[4] = dose: 100.0 mg/kg/injection, schedule: Q01DX001 (ip), vehicle: Klucel (hydroxypropylcellulose) (HPC)
[5] = dose: 200.0 mg/kg/injection, schedule: Q01DX001 (ip), vehicle: Klucel (hydroxypropylcellulose) (HPC)

Measured: T/C

O=C(O)c1cc(Br)cc(Br)c1O
inactive: [1] 123 % of control | dose: 100.0 mg/kg/injection, schedule: Q04DX002 (ip), vehicle: saline with Tween-80 91 % of control | [2] 105 % of control | dose: 200.0 mg/kg/injection, schedule: Q04DX002 (ip), vehicle: saline with Tween-80 100 % of control | [3] 109 % of control | dose: 400.0 mg/kg/injection, schedule: Q04DX002 (ip), vehicle: saline with Tween-80 88 % of control

Cc1ccc(-n2c(O)c(N=Nc3ccc(Cl)cc3)c(=O)n(-c3ccc(Br)cc3)c2=S)cc1
inactive: dose: 50.0 mg/kg/injection, schedule: Q01DX001 (ip), vehicle: Klucel (hydroxypropylcellulose) (HPC) 103 % of control | [4] 105 % of control | [5] 108 % of control

O=c1ccn(O)cc1
inactive: dose: 100.0 mg/kg/injection, schedule: Q04DX002 (ip), vehicle: other 96 % of control | dose: 200.0 mg/kg/injection, schedule: Q04DX002 (ip), vehicle: other 100 % of control | dose: 400.0 mg/kg/injection, schedule: Q04DX002 (ip), vehicle: other 88 % of control

C/C=[N+](/[O-])CC
inactive: dose: 100.0 mg/kg/injection, schedule: Q01DX009 (ip), vehicle: saline 102 % of control | dose: 100.0 mg/kg/injection, schedule: Q04DX003 (ip), vehicle: saline 102 % of control | dose: 200.0 mg/kg/injection, schedule: Q01DX009 (ip), vehicle: saline 101 % of control | dose: 200.0 mg/kg/injection, schedule: Q04DX003 (ip), vehicle: saline 105 % of control | dose: 400.0 mg/kg/injection, schedule: Q01DX009 (ip), vehicle: saline 101 % of control | dose: 400.0 mg/kg/injection, schedule: Q04DX003 (ip), vehicle: saline 110 % of control

CC(C)(C)CC(C)(C)N(CSc1ccc([N+](=O)[O-])cc1)CSc1ccc([N+](=O)[O-])cc1
inactive: [1] 102 % of control | [2] 94 % of control | [3] 94 % of control

NC(N)=N/N=C/c1ccc(Cl)cc1Cl
inactive: dose: 30.0 mg/kg/injection, schedule: Q01DX010 (oral), vehicle: saline 102 % of control | dose: 44.0 mg/kg/injection, schedule: Q01DX010 (oral), vehicle: saline 100 % of control | dose: 50.0 mg/kg/injection, schedule: Q01DX001 (ip), vehicle: saline 100 % of control | dose: 63.0 mg/kg/injection, schedule: Q01DX Z (ip), vehicle: saline 101 % of control | dose: 66.0 mg/kg/injection, schedule: Q01DX010 (oral), vehicle: saline 104 % of control | dose: 99.0 mg/kg/injection, schedule: Q01DX010 (oral), vehicle: saline 98 % of control | [1] 106 % of control | [2] 108 % of control

NC(=S)NNC(=O)CN1C(=O)c2ccccc2C1=O
inactive: [4] 102 % of control | [5] 105 % of control | dose: 400.0 mg/kg/injection, schedule: Q01DX001 (ip), vehicle: Klucel (hydroxypropylcellulose) (HPC) 102 % of control
